Data from PubChem BioAssay (NCI).
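Test compounds were applied to cells in 96-well plates for 48 hours at 5 doses. Abbreviation: GI50, concentration required for 50% inhibition of growth. TGI denotes the concentration required for complete inhibition of growth.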

What was measured:
Assay in all cases: inhibition of tumour cell growth, NCI panel, 48 h
[1] = test system: SNB-19 CNS
[2] = test system: CCRF-CEM leukemia
[3] = test system: SNB-75 CNS
[4] = test system: SK-MEL-28 melanoma
[5] = test system: HCC-2998 colon
[6] = test system: SN12C renal
[7] = test system: EKVX NSCLC
[8] = test system: ACHN renal
[9] = test system: MDA-MB-231 breast
[10] = test system: NCI/ADR-RES ovarian

| Compound | TGI [1] [µM] | TGI [2] [µM] | TGI [3] [µM] | TGI [4] [µM] | TGI [5] [µM] | TGI [6] [µM] | TGI [7] [µM] | TGI [8] [µM] | GI50 [1] [µM] | GI50 [2] [µM] | GI50 [3] [µM] | GI50 [8] [µM] | GI50 [4] [µM] | GI50 [5] [nM] | GI50 [6] [µM] | GI50 [7] [µM] | GI50 [9] [µM] | TGI [9] [µM] | GI50 [10] [µM] | TGI [10] [µM] |
| --- | --- | --- | --- | --- | --- | --- | --- | --- | --- | --- | --- | --- | --- | --- | --- | --- | --- | --- | --- | --- |
| CC(=O)Nc1ccc(/C=C(\NC(=O)c2ccccc2)c2nc3ccc4c(c3[nH]2)C(=O)c2ccccc2C4=O)cc1 | > 100 | > 100 | 61.5 | > 100 | > 100 | > 100 | > 100 |  |  |  |  |  |  |  |  |  |  |  |  |  |
| COc1nc2c(OC)cccc2c(OC)c1C=O | > 100 | > 100 | > 100 | > 100 |  | > 100 | > 100 | > 100 |  |  |  |  |  |  |  |  |  |  |  |  |
| O=C1NC(=O)C(C(=O)C(=O)Nc2ccc(Br)cc2)C(=O)N1 | > 100 | > 100 | > 100 | > 100 | > 100 | > 100 | > 100 | > 100 |  |  |  |  |  |  |  |  |  |  |  |  |
| CC(C)(C)NNC(=O)/C(=C/c1ccc(Oc2ccc(Cl)c(Cl)c2)cc1)NC(=O)c1ccccc1 | > 100 | > 100 | > 100 | > 100 | > 100 | > 100 | > 100 | > 100 |  |  |  |  |  |  |  |  |  |  |  |  |
| O=S(=O)([O-])[O-].[OH3+].[OH3+].[OH3+].[Ru+2].c1ccccc1 | > 100 | > 100 | > 100 | > 100 | > 100 | > 100 | > 100 | > 100 | > 100 | > 100 | > 100 | > 100 | > 100 | > 100000 | > 100 | > 100 |  |  |  |  |
| Cc1ccc(Nc2nc(NCCO)c3ccccc3n2)cc1C | 24.8 | 18.6 | 20.9 | 20.1 | 5.96 | 24.4 |  | 23.9 | 11.5 | 4.57 | 8.14 | 11 | 6.47 | 2440 | 10.3 |  | 4.22 | 16.1 | 7.18 | 20.6 |
| CSC(=S)c1ccc(C(=S)SC)cc1 | > 100 |  | > 100 |  | > 100 | > 100 | > 100 |  |  |  |  |  |  |  |  |  |  |  |  |  |
| CCCc1c2c([nH]c(=O)c1C)C(=O)c1[nH]c(=O)c(C)c(CCC)c1C2=O | 55 | 73.2 | 55.9 | > 100 | > 100 | 22.2 |  | 47.6 |  |  |  |  |  |  |  |  |  |  |  |  |
| CCOC(=N)CC(=O)Nc1ccc(Cl)cc1 | > 100 | > 100 | > 100 | > 100 | > 100 | > 100 | > 100 | > 100 |  |  |  |  |  |  |  |  |  |  |  |  |
| Oc1ccc2ccccc2c1C=NCCCN=Cc1c(O)ccc2ccccc12 | > 100 | 56.5 |  | > 100 |  |  | > 100 | 34.9 | 14.7 | 5.26 |  | 5.73 | 15.8 |  |  | 17.3 | 11.6 | 30.2 | 14.6 | 49.4 |
| CN(C)c1ccc(-c2cc(=O)c3ccccc3[nH]2)cc1 | > 100 | > 100 |  | > 100 | > 100 | > 100 | > 100 | > 100 |  |  |  |  |  |  |  |  |  |  |  |  |
